± gives the standard deviation of the averaged measurements.
Experiments:
Test in all cases: normalised growth rate inhibition (GR value) relative to DMSO control (GR (1 = untreated growth, 0 = cytostasis, <0 = cytotoxic)); higher = less growth inhibition
Settings in all cases: 72 h
[1] = test system: MCF10A
Method: (§1)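 Breast cancer cell lines (BT-20, Hs 578T, MCF 10A, MCF7, MDA-MB-231, SK-BR-3) were plated in 384-well plates and treated 24 h later with drugs at six concentrations (0.04-10 µM). Viable cells were counted by Hoechst/dead-cell-stain imaging at 0 and 72 h. Counts were normalised to DMSO controls on the same plate to give the relative cell count and the growth-rate inhibition (GR) value; technical plate triplicates were averaged for each biological replicate.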

[2] = test system: BT20
Method: as §1

[3] = test system: SKBR3
Method: as §1

[4] = test system: HS578T
Method: as §1

[5] = test system: MCF7
Method: as §1

[6] = test system: MDAMB231
Method: as §1

Row | SMILES | normalised growth rate inhibition ([1]; 0.04 µM) | normalised growth rate inhibition ([1]; 0.12 µM) | normalised growth rate inhibition ([1]; 0.37 µM) | normalised growth rate inhibition ([1]; 1.11 µM) | normalised growth rate inhibition ([1]; 3.33 µM) | normalised growth rate inhibition ([1]; 10 µM) | normalised growth rate inhibition ([2]; 0.04 µM) | normalised growth rate inhibition ([2]; 0.12 µM) | normalised growth rate inhibition ([2]; 0.37 µM) | normalised growth rate inhibition ([2]; 1.11 µM) | normalised growth rate inhibition ([2]; 3.33 µM) | normalised growth rate inhibition ([2]; 10 µM) | normalised growth rate inhibition ([3]; 0.04 µM) | normalised growth rate inhibition ([3]; 0.12 µM) | normalised growth rate inhibition ([3]; 0.37 µM) | normalised growth rate inhibition ([3]; 1.11 µM) | normalised growth rate inhibition ([3]; 3.33 µM) | normalised growth rate inhibition ([3]; 10 µM) | normalised growth rate inhibition ([4]; 0.04 µM) | normalised growth rate inhibition ([4]; 0.12 µM) | normalised growth rate inhibition ([4]; 0.37 µM) | normalised growth rate inhibition ([4]; 1.11 µM) | normalised growth rate inhibition ([4]; 3.33 µM) | normalised growth rate inhibition ([4]; 10 µM) | normalised growth rate inhibition ([5]; 0.04 µM) | normalised growth rate inhibition ([5]; 0.12 µM) | normalised growth rate inhibition ([5]; 0.37 µM) | normalised growth rate inhibition ([5]; 1.11 µM) | normalised growth rate inhibition ([5]; 3.33 µM) | normalised growth rate inhibition ([5]; 10 µM) | normalised growth rate inhibition ([6]; 0.04 µM) | normalised growth rate inhibition ([6]; 0.12 µM) | normalised growth rate inhibition ([6]; 0.37 µM) | normalised growth rate inhibition ([6]; 1.11 µM) | normalised growth rate inhibition ([6]; 3.33 µM) | normalised growth rate inhibition ([6]; 10 µM)
1 | O=C1c2c(O)ccc(O)c2C(=O)c2c(NCCNCCO)ccc(NCCNCCO)c21 [mitoxantrone] | 0.228 ± 0.057 | 0.0237 ± 0.034 | -0.00408 ± 0.025 | -0.0492 ± 0.02 | -0.186 ± 0.1 | -0.142 ± 0.092 | 0.252 ± 0.12 | 0.0494 ± 0.084 | -0.0983 ± 0.12 | -0.205 ± 0.14 | -0.243 ± 0.12 | -0.461 ± 0.18 | -0.0581 ± 0.17 | -0.0745 ± 0.18 | -0.0948 ± 0.2 | -0.164 ± 0.17 | -0.353 ± 0.13 | -0.707 ± 0.16 | 0.0811 ± 0.1 | -0.0173 ± 0.041 | -0.0612 ± 0.043 | -0.207 ± 0.087 | -0.394 ± 0.11 | -0.511 ± 0.17 | 0.0337 ± 0.042 | 0.0173 ± 0.037 | 0.0313 ± 0.056 | -0.141 ± 0.11 | -0.348 ± 0.039 | -0.59 ± 0.15 | -0.0551 ± 0.058 | -0.0634 ± 0.075 | -0.137 ± 0.1 | -0.222 ± 0.15 | -0.327 ± 0.24 | -0.48 ± 0.21
2 | CCOc1cc2ncc(C#N)c(Nc3ccc(OCc4ccccn4)c(Cl)c3)c2cc1NC(=O)/C=C/CN(C)C [neratinib] | 0.441 ± 0.24 | 0.314 ± 0.19 | 0.191 ± 0.11 | 0.168 ± 0.098 | 0.131 ± 0.058 | 0.122 ± 0.054 | 0.724 ± 0.042 | 0.669 ± 0.069 | 0.617 ± 0.11 | 0.528 ± 0.11 | 0.41 ± 0.12 | 0.301 ± 0.13 | -0.108 ± 0.19 | -0.114 ± 0.2 | -0.14 ± 0.19 | -0.118 ± 0.22 | -0.152 ± 0.22 | -0.215 ± 0.19 | 0.887 ± 0.0023 | 0.81 ± 0.0089 | 0.649 ± 0.085 | 0.485 ± 0.22 | 0.274 ± 0.24 | 0.0282 ± 0.1 | 0.722 ± 0.12 | 0.663 ± 0.081 | 0.585 ± 0.042 | 0.419 ± 0.23 | 0.299 ± 0.21 | 0.0822 ± 0.12 | 0.907 ± 0.13 | 0.868 ± 0.15 | 0.728 ± 0.12 | 0.581 ± 0.23 | 0.387 ± 0.29 | 0.0691 ± 0.39
3 | Cc1cn(-c2cc(NC(=O)c3ccc(C)c(Nc4nccc(-c5cccnc5)n4)c3)cc(C(F)(F)F)c2)cn1 [nilotinib] | 1 ± 0.036 | 0.991 ± 0.035 | 0.978 ± 0.029 | 0.992 ± 0.044 | 0.982 ± 0.035 | 0.507 ± 0.14 | 1 ± 0.043 | 1.01 ± 0.044 | 1.02 ± 0.039 | 0.996 ± 0.043 | 1 ± 0.039 | 0.0181 ± 0.099 | 1.1 ± 0.074 | 1.11 ± 0.043 | 1.15 ± 0.029 | 1.11 ± 0.052 | 1.08 ± 0.068 | 0.208 ± 0.097 | 1.09 ± 0.056 | 1.1 ± 0.072 | 1.09 ± 0.078 | 1.07 ± 0.06 | 1.07 ± 0.093 | 0.028 ± 0.096 | 1.03 ± 0.021 | 1.04 ± 0.038 | 0.971 ± 0.021 | 0.958 ± 0.014 | 0.956 ± 0.059 | 0.0407 ± 0.15 | 0.943 ± 0.038 | 0.914 ± 0.099 | 0.863 ± 0.1 | 0.805 ± 0.14 | 0.818 ± 0.13 | 0.00998 ± 0.16
